Entries after “also recorded” stand apart in the source; their conditions may differ.
Assays:
[1] = Treatment-emergent adverse events (TEAEs), TRESR; assay type: in vivo, human
Protocol: (§1) Tolerability and safety of camonsertib was evaluated by assessment of AEs, TEAEs, serious adverse events (SAEs), DLTs, concomitant medications and procedures, physical examinations, vital sign measurements, clinical safety laboratory evaluations (hematology, chemistry and urinalysis), ECOG performance status scores and electrocardiograms.
All safety and efficacy endpoints were summarized with descriptive statistics. Safety data were summarized using the safety population, which consisted of all patients who received at least one dose of RP-3500. The DLT rate was based on the DLT-evaluable population, which included those patients in dose-escalation cohorts (M1a and M1b only) receiving ≥80% of planned doses of camonsertib, who completed all required safety evaluations and were observed through the end of cycle 1 or patients who experienced a DLT. Due to the different number of dose levels expected and the exploratory nature of the phase 1 study, anti-tumor activity parameters were primarily based on patients who received ≥1 dose of RP-3500 and had ≥1 post-baseline tumor assessment by RECIST 1.1 and/or GCIG CA-125 or PCWG3 PSA criteria, with an initial dose level of >100 mg d^−1 (dose level predicted to achieve efficacious exposure), as defined in the statistical analysis plan. Additional subgroups based on tumor types or genotypes of interest were based on this efficacy analysis set. […] Patients were, therefore, enrolled in the study and endpoints assessed regardless of sex, gender and race. No formal statistical tests were performed in this study. However, nominal P values (two-sided) were provided for the hypothesis-generating purpose of selected exploratory endpoints, without adjusting for multiplicity. A log-rank test was used in between-group comparisons for the time-to-event endpoints (PFS and DOT), and Fisher’s exact test was used in between-group comparisons for the binary endpoints (CBR, MR, etc.).

p-KAP1 Ser821 = assay: PD biomarker IHC in paired pre-/on-treatment tumor biopsies; assay type: in vivo, human; conditions: 33 paired biopsies, doses >100 mg; P < 0.001, paired Wilcoxon test
Protocol: (§2) Tumor biopsies were collected from patients at baseline and on cycle 2, day 10 between 8 h and 24 h after dosing. […] Thus, p-CHK1 was not assessed owing to limited feasibility. Unstained slides sectioned at 4 μm were labeled for gH2AX Ser139 (clone 20E3, 9718, Cell Signaling Technology, 1:1,000 dilution) and pKAP1 S824 (clone BL-246-7B5, ab243870, Abcam, 1:600 dilution) on a BOND RX autostainer (Leica Biosystems) with enzyme treatment (1:1,000) and BOND Polymer Refine Detection (Leica Biosystems) according to the manufacturer’s protocol. After staining, sections were dehydrated and film-coverslipped using a TissueTek Prisma and Coverslipper (Sakura Fintech). Retrospective ATM IHC was performed by a sponsor-approved central laboratory (anti-ATM clone Y170, ab32420, Abcam, 1:250 dilution). All slides were interpreted by a board-certified pathologist. ATM loss was defined as ≤5% of positive tumor cells.

γ-H2AX = assay: as above; assay type: in vivo, human; conditions: 33 paired biopsies, doses >100 mg; P = 0.003, paired Wilcoxon test
Protocol: as §2

Effect on QT interval = assay: Effect on QT interval; design: species or system human; conditions: in vivo
Protocol: as §1

[2] = 3/4 schedule (n = 95), all grades
[3] = 3/4 schedule (n = 95), grade 3+
[4] = 5/2 schedule (n = 25), all grades
[5] = 5/2 schedule (n = 25), grade 3+

C[C@@H]1COCCN1c1cc([C@]2(O)C[C@H]3CC[C@@H](C2)O3)c2cnn(-c3cc[nH]n3)c2n1 [camonsertib]
Any TEAE [1, 2]: 92 (96.8) n (%)
TEAE: Abdominal pain [1, 2]: 15 (15.8) n (%)
TEAE: Anemia [1, 2]: 63 (66.3) n (%)
TEAE: Blood creatinine increased [1, 2]: 8 (8.4) n (%)
TEAE: Constipation [1, 2]: 13 (13.7) n (%)
TEAE: Decreased appetite [1, 2]: 21 (22.1) n (%)
TEAE: Diarrhea [1, 2]: 20 (21.1) n (%)
TEAE: Dizziness [1, 2]: 11 (11.6) n (%)
TEAE: Dyspnea [1, 2]: 18 (18.9) n (%)
TEAE: Fatigue [1, 2]: 34 (35.8) n (%)
TEAE: Nausea [1, 2]: 31 (32.6) n (%)
TEAE: Neutrophil count decreased/neutropenia [1, 2]: 27 (28.4) n (%)
TEAE: Platelet count decreased/ thrombocytopenia [1, 2]: 25 (26.3) n (%)
TEAE: Vomiting [1, 2]: 16 (16.8) n (%)
TEAE: White blood cell count decreased [1, 2]: 11 (11.6) n (%)
Any TEAE [1, 3]: 51 (53.7) n (%)
TEAE: Abdominal pain [1, 3]: 0 n (%)
TEAE: Anemia [1, 3]: 28 (29.5) n (%)
TEAE: Blood creatinine increased [1, 3]: 0 n (%)
TEAE: Constipation [1, 3]: 0 n (%)
TEAE: Decreased appetite [1, 3]: 0 n (%)
TEAE: Diarrhea [1, 3]: 0 n (%)
TEAE: Dizziness [1, 3]: 0 n (%)
TEAE: Dyspnea [1, 3]: 2 (2.1) n (%)
TEAE: Fatigue [1, 3]: 2 (2.1) n (%)
TEAE: Nausea [1, 3]: 3 (3.2) n (%)
TEAE: Neutrophil count decreased/neutropenia [1, 3]: 13 (13.7) n (%)
TEAE: Platelet count decreased/ thrombocytopenia [1, 3]: 8 (8.4) n (%)
TEAE: Vomiting [1, 3]: 3 (3.2) n (%)
TEAE: White blood cell count decreased [1, 3]: 4 (4.2) n (%)
Any TEAE [1, 4]: 25 (100.0) n (%)
TEAE: Abdominal pain [1, 4]: 3 (12.0) n (%)
TEAE: Anemia [1, 4]: 21 (84.0) n (%)
TEAE: Blood creatinine increased [1, 4]: 4 (16.0) n (%)
TEAE: Constipation [1, 4]: 5 (20.0) n (%)
TEAE: Decreased appetite [1, 4]: 6 (24.0) n (%)
TEAE: Diarrhea [1, 4]: 3 (12.0) n (%)
TEAE: Dizziness [1, 4]: 2 (8.0) n (%)
TEAE: Dyspnea [1, 4]: 8 (32.0) n (%)
TEAE: Fatigue [1, 4]: 10 (40.0) n (%)
TEAE: Nausea [1, 4]: 8 (32.0) n (%)
TEAE: Neutrophil count decreased/neutropenia [1, 4]: 6 (24.0) n (%)
TEAE: Platelet count decreased/ thrombocytopenia [1, 4]: 8 (32.0) n (%)
TEAE: Vomiting [1, 4]: 4 (16.0) n (%)
TEAE: White blood cell count decreased [1, 4]: 3 (12.0) n (%)
Any TEAE [1, 5]: 19 (76.0) n (%)
TEAE: Abdominal pain [1, 5]: 0 n (%)
TEAE: Anemia [1, 5]: 14 (56.0) n (%)
TEAE: Blood creatinine increased [1, 5]: 0 n (%)
TEAE: Constipation [1, 5]: 0 n (%)
TEAE: Decreased appetite [1, 5]: 0 n (%)
TEAE: Diarrhea [1, 5]: 0 n (%)
TEAE: Dizziness [1, 5]: 0 n (%)
TEAE: Dyspnea [1, 5]: 0 n (%)
TEAE: Fatigue [1, 5]: 1 (4.0) n (%)
TEAE: Nausea [1, 5]: 0 n (%)
TEAE: Neutrophil count decreased/neutropenia [1, 5]: 4 (16.0) n (%)
TEAE: Platelet count decreased/ thrombocytopenia [1, 5]: 3 (12.0) n (%)
TEAE: Vomiting [1, 5]: 0 n (%)
TEAE: White blood cell count decreased [1, 5]: 0 n (%)
Change in p-KAP1, on-treatment vs pre-treatment biopsy (p-KAP1 Ser821): statistically significant increases
Change in γ-H2AX, on-treatment vs pre-treatment biopsy (γ-H2AX): statistically significant increases
Effect on QT interval (ΔQTcF) (Effect on QT interval): No effect on QT interval was observed; also recorded: do not affect
